Assay results from article PMC8336373, “Characterization of three glutamate decarboxylases from Bacillus spp. for efficient γ-aminobutyric acid production” (Microbial Cell Factories, 2021).

Key:
Settings in all cases: Na2HPO4-citric acid buffer, pH 5.0, 40 °C, 15 min, 5–150 mM L-Glu
[1] = test system: GADZ1
From the text: HPLC of GABA (DABS-Cl derivatisation), initial rate nonlinear fit on GADZ1

[2] = test system: GADZ20
From the text: HPLC of GABA (DABS-Cl derivatisation), initial rate nonlinear fit on GADZ20

[3] = test system: GADZ11
From the text: HPLC of GABA (DABS-Cl derivatisation), initial rate nonlinear fit on GADZ11

Km [1]: 45.4 ± 8.63 mM | Km [2]: 13.3 ± 1.95 mM | Km [3]: 52.4 ± 5.44 mM
SMILES: N[C@@H](CCC(=O)O)C(=O)O [L-Glu]
